According to ChEMBL document CHEMBL6120956, “Discovery of a Potent, Orally Active, and Long-Lasting P2X7 Receptor Antagonist as a Preclinical Candidate for Delaying the Progression of Chronic Kidney Disease” (J Med Chem, 2024):
pIC50: −log10 of the molar value. Calls of active or inactive are those of the source. The rule behind the calls is not given here.

Legend:
[1] = molecular target: T1, P2X purinoceptor 7 (Mus musculus) (UniProt Q9Z1M0); assay: Antagonist activity against mouse P2X7 receptor expressed in ATP-stimulated HEK293 cells assessed as influx of PI at 1 uM by fluorescence dye uptake assay relative to control; type: cell-based; parameters: scale not given: the % may be the effect or the level left
T1 sequence (whole entry): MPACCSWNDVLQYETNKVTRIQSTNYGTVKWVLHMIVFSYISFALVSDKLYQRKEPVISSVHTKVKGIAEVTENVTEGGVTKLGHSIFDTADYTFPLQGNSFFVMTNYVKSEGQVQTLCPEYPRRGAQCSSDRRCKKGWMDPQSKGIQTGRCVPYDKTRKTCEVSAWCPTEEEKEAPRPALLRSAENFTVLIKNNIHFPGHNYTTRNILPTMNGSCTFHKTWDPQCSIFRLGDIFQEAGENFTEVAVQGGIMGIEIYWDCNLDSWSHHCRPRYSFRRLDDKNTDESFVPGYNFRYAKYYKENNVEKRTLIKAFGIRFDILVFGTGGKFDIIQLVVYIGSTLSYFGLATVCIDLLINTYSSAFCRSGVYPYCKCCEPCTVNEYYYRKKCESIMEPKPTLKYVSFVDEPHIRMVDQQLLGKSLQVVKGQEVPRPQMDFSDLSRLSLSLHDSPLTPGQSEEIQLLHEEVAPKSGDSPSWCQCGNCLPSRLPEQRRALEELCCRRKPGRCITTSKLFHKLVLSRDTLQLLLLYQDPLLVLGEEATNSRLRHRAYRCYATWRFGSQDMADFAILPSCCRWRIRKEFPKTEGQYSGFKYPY

[2] = molecular target: T1, P2X purinoceptor 7 (Mus musculus); assay: Antagonist activity against mouse P2X7 receptor expressed in ATP-stimulated HEK293 cells assessed as influx of PI at 200 nM by fluorescence dye uptake assay relative to control; type: cell-based; parameters: scale not given: the % may be the effect or the level left
P2X purinoceptor 7 = molecular target: T2, P2X purinoceptor 7 (Mus musculus, UniProt Q9Z1M0); assay: Antagonist activity against mouse P2X7 receptor expressed in ATP-stimulated HEK293 cells assessed as influx of PI by fluorescence dye uptake assay relative to control; type: cell-based
T2 sequence (Q9Z1M0 whole entry): T1 sequence (whole entry)

[3] = Metabolic stability in human liver microsomes assessed as clearance; type: ADME, Microsome; details: read-out: CLH
[4] = Metabolic stability in human liver microsomes assessed as half life; type: ADME, Microsome
[5] = Metabolic stability in mouse liver microsomes assessed as clearance; type: ADME, Microsome; details: read-out: CLH
[6] = Metabolic stability in mouse liver microsomes assessed as half life; type: ADME, Microsome
[7] = AUC (0 to t) in male BALB/c mouse at 10 mg/kg, po single administration measured upto 72 hrs by LC-MS/MS analysis; type: ADME, organism-based; details: in vivo
[8] = Clearance in male BALB/c mouse at 10 mg/kg, po single administration measured upto 72 hrs by LC-MS/MS analysis; type: ADME, organism-based; details: in vivo
[9] = Cmax in male BALB/c mouse at 10 mg/kg, po single administration measured upto 72 hrs by LC-MS/MS analysis; type: ADME, organism-based; details: in vivo
[10] = Half life in male BALB/c mouse at 10 mg/kg, po single administration measured upto 72 hrs by LC-MS/MS analysis; type: ADME, organism-based; details: in vivo
[11] = Tmax in male BALB/c mouse at 10 mg/kg, po single administration measured upto 72 hrs by LC-MS/MS analysis; type: ADME, organism-based; details: in vivo

CS(=O)(=O)c1ccc(-c2nc(C(=O)NCc3cn(-c4cccc(Br)n4)nn3)cs2)cc1
Activity [1]: 50% | Activity [2]: 15.6%

CS(=O)(=O)c1ccc(-c2nc(C(=O)NCc3cn(-c4cc(-c5ccc(C(F)(F)F)cc5)ccn4)nn3)cs2)cc1
Activity [1]: 37% | Activity [2]: 27.1%

CS(=O)(=O)c1ccc(-c2ncc(C(=O)NCc3cn(-c4cc(N5CCC(F)(F)CC5)ccn4)nn3)s2)cc1
pIC50 (P2X purinoceptor 7): 7.21 | CLint scaled [3]: 21.8 mL/min/kg | half-life [4]: 1.33 h | CLint scaled [5]: 92.1 mL/min/kg | half-life [6]: 0.987 h

CS(=O)(=O)c1ccc(-c2ncc(C(=O)NCc3cn(-c4ccnc(Br)c4)nn3)s2)cc1
Activity [1]: inactive | Activity [2]: inactive

CS(=O)(=O)c1ccc(-c2nc(C(=O)NCc3cn(-c4ccc(Br)nc4)nn3)cs2)cc1
Activity [1]: 10% | Activity [2]: inactive

COc1ccnc(-n2cc(CNC(=O)c3csc(-c4ccc(S(C)(=O)=O)cc4)n3)nn2)c1
Activity [1]: 20.2% | Activity [2]: 6%

CS(=O)(=O)c1ccc(-c2ncc(C(=O)NCc3cn(-c4cc(-c5ccc(C(F)(F)F)s5)ccn4)nn3)s2)cc1
Activity [1]: 35.6% | Activity [2]: 18.4%

CS(=O)(=O)c1ccc(-c2ncc(C(=O)NCc3cn(-c4ccc(Cl)cn4)nn3)s2)cc1
Activity [1]: 28.1% | Activity [2]: inactive

CS(=O)(=O)c1ccc(-c2nc(C(=O)NCc3cn(-c4ccnc(Br)c4)nn3)cs2)cc1
Activity [1]: inactive | Activity [2]: inactive

CS(=O)(=O)c1ccc(-c2ncc(C(=O)NCc3cn(-c4cc(-c5cncc(C(F)(F)F)c5)ccn4)nn3)s2)cc1
Activity [1]: 49.6% | Activity [2]: 42.8%

CS(=O)(=O)c1ccc(-c2ncc(C(=O)NCc3cn(-c4cc(-c5ccc(C(F)(F)F)cc5)ccn4)nn3)s2)cc1
Activity [1]: inactive | Activity [2]: inactive

C[C@H](NC(=O)c1csc(-c2ccc(S(C)(=O)=O)cc2)n1)c1cn(-c2cc(C(F)(F)F)ccn2)nn1
pIC50 (P2X purinoceptor 7): 7.01 | CLint scaled [3]: < 12 mL/min/kg | half-life [4]: > 2 h | CLint scaled [5]: < 12 mL/min/kg | half-life [6]: > 2 h | AUC(0-t) at 72 h [7]: 107000 ng·h/mL | CL/F [8]: 1.5 mL/min/kg | Cmax [9]: 3230 ng/mL | half-life [10]: 7.38 h | Tmax [11]: 7.33 h

CS(=O)(=O)c1ccc(-c2ncc(C(=O)NCc3cn(-c4cc(Nc5cnn(C(F)F)c5)ccn4)nn3)s2)cc1
Activity [1]: 32.5% | Activity [2]: 26.6%

CS(=O)(=O)c1ccc(-c2ncc(C(=O)NCc3cn(-c4cccc(Br)n4)nn3)s2)cc1
Activity [1]: 45% | Activity [2]: 10.7%

CS(=O)(=O)c1ccc(-c2nc(C(=O)NCc3cn(-c4cc(NC5CC(F)(F)C5)ccn4)nn3)cs2)cc1
pIC50 (P2X purinoceptor 7): 7.26 | CLint scaled [3]: 13.8 mL/min/kg | half-life [4]: > 2 h | CLint scaled [5]: 166 mL/min/kg | half-life [6]: 0.547 h

CS(=O)(=O)c1ccc(-c2nc(C(=O)NCc3cn(-c4ccc(Cl)cn4)nn3)cs2)cc1
Activity [1]: inactive | Activity [2]: inactive

CS(=O)(=O)c1ccc(-c2nc(C(=O)NCc3cn(-c4cc(-c5cncc(C(F)(F)F)c5)ccn4)nn3)cs2)cc1
Activity [1]: 32.5% | Activity [2]: 30.3%

CS(=O)(=O)c1ccc(-c2nc(C(=O)NCc3cn(-c4cc(-c5cccc(C(F)(F)F)c5)ccn4)nn3)cs2)cc1
pIC50 (P2X purinoceptor 7): 6.35

CS(=O)(=O)c1ccc(-c2nc(C(=O)NCc3cn(-c4cc(-c5ccc(C(F)(F)F)s5)ccn4)nn3)cs2)cc1
Activity [1]: 28.7% | Activity [2]: 24.9%

CS(=O)(=O)c1ccc(-c2ncc(C(=O)NCc3cn(-c4ccc(Br)nc4)nn3)s2)cc1
Activity [1]: 42.8% | Activity [2]: 35%

CS(=O)(=O)c1ccc(-c2ncc(C(=O)NCc3cn(-c4ccncc4Br)nn3)s2)cc1
Activity [1]: 41% | Activity [2]: 25.9%

CS(=O)(=O)c1ccc(-c2nc(C(=O)NCc3cn(-c4ccc(F)cn4)nn3)cs2)cc1
Activity [1]: 48.4% | Activity [2]: 13.3%

CS(=O)(=O)c1ccc(-c2nc(C(=O)NCc3cn(-c4ccncc4Br)nn3)cs2)cc1
Activity [1]: 39.5% | Activity [2]: 28.6%

CS(=O)(=O)c1ccc(-c2ncc(C(=O)NCc3cn(-c4cc(-c5cccc(C(F)(F)F)c5)ccn4)nn3)s2)cc1
Activity [1]: 27.4% | Activity [2]: 13.3%

CS(=O)(=O)c1ccc(-c2ncc(C(=O)NCc3cn(-c4ccc(F)cn4)nn3)s2)cc1
Activity [1]: 25.7% | Activity [2]: 12.4%

CS(=O)(=O)c1ccc(-c2nc(C(=O)NCc3cn(-c4cc(Br)ccn4)nn3)cs2)cc1
AUC(0-t) at 72 h [7]: 6510 ng·h/mL | CL/F [8]: 25.8 mL/min/kg | Cmax [9]: 1300 ng/mL | half-life [10]: 1.91 h | Tmax [11]: 1.17 h

CS(=O)(=O)c1ccc(-c2nc(C(=O)NCc3cn(-c4cc(C(F)(F)F)ccn4)nn3)cs2)cc1
pIC50 (P2X purinoceptor 7): 7.15 | CLint scaled [3]: < 12 mL/min/kg | half-life [4]: > 2 h | CLint scaled [5]: < 12 mL/min/kg | half-life [6]: > 2 h | AUC(0-t) at 72 h [7]: 49800 ng·h/mL | CL/F [8]: 3.33 mL/min/kg | Cmax [9]: 4530 ng/mL | half-life [10]: 4.08 h | Tmax [11]: 1.83 h

CS(=O)(=O)c1ccc(-c2ncc(C(=O)NCc3cn(-c4cc(NC5CC(F)(F)C5)ccn4)nn3)s2)cc1
pIC50 (P2X purinoceptor 7): 6.86 | CLint scaled [3]: < 12 mL/min/kg | half-life [4]: > 2 h | CLint scaled [5]: 142 mL/min/kg | half-life [6]: 0.67 h

CS(=O)(=O)c1ccc(-c2nc(C(=O)NCc3cn(-c4cc(Nc5cnn(C(F)F)c5)ccn4)nn3)cs2)cc1
Activity [1]: 11.4% | Activity [2]: 28.7%

CS(=O)(=O)c1ccc(-c2nc(C(=O)NCc3cn(-c4cc(N5CCC(F)(F)CC5)ccn4)nn3)cs2)cc1
pIC50 (P2X purinoceptor 7): 6.99 | CLint scaled [3]: 54.2 mL/min/kg | half-life [4]: 0.535 h | CLint scaled [5]: 273 mL/min/kg | half-life [6]: 0.333 h

COc1ccnc(-n2cc(CNC(=O)c3cnc(-c4ccc(S(C)(=O)=O)cc4)s3)nn2)c1
Activity [1]: 9.9% | Activity [2]: inactive

CS(=O)(=O)c1ccc(-c2nc(C(=O)NCc3cn(-c4cncc(Br)c4)nn3)cs2)cc1
Activity [1]: 23.9% | Activity [2]: 17.7%

Clc1cccc(-n2nnnc2NCc2ccccc2Oc2ccccn2)c1Cl
Activity [1]: 96.3% | Activity [2]: 90.7%

CS(=O)(=O)c1ccc(-c2ncc(C(=O)NCc3cn(-c4cc(C(F)(F)F)ccn4)nn3)s2)cc1
pIC50 (P2X purinoceptor 7): 7.09 | CLint scaled [3]: < 12 mL/min/kg | half-life [4]: > 2 h | CLint scaled [5]: 22.8 mL/min/kg | half-life [6]: > 2 h | AUC(0-t) at 72 h [7]: 14100 ng·h/mL | CL/F [8]: 11.8 mL/min/kg | Cmax [9]: 2230 ng/mL | half-life [10]: 3.35 h | Tmax [11]: 2 h

CS(=O)(=O)c1ccc(-c2ncc(C(=O)NCc3cn(-c4cncc(Br)c4)nn3)s2)cc1
Activity [1]: 36.8% | Activity [2]: 33.5%

Cc1ccnc(-n2cc(CNC(=O)c3cnc(-c4ccc(S(C)(=O)=O)cc4)s3)nn2)c1
Activity [1]: 44.4% | Activity [2]: 30.7%

Cc1ccnc(-n2cc(CNC(=O)c3csc(-c4ccc(S(C)(=O)=O)cc4)n3)nn2)c1
Activity [1]: 5.1% | Activity [2]: inactive
